Assay results published in patent US11945822B2, “Pyrazolo-triazine and/or pyrazolo-pxrimidine derivatives as selective inhibitor of cyclin dependent kinase” (QURIENT CO., LTD., priority 2018, dated 2024).
Where two headings read alike, the source gives them in different places.

Assays:
A2780 = test: Cellular A2780 viability assay (CellTiter-Glo, 72 hours); type: cell-based; settings: Homo sapiens
From the text: Human T-cell acute lymphoblastic leukemia cell line, MOLT-4 (ATCC, Cat #CRL-1582), Human multiple myeloma cell line, RPMI-8226 (Invitrogen, Cat #22400-089) and MM.1S (ATCC, Cat #CRL-2974), NSCLC (Non-small cell lung cancer) cell line H460 (ATCC, Cat #HTB-177), Human colon colorectal carcinoma cell line HCT116 (ATCC, Cat #CCL-247), Human acute monocytic leukemia cell line MV4-11 (ATCC, Cat #CRL-9591), OVCAR-3 (ATCC, Cat #HTB-161) and A2780 (ECACC, Cat #93112519) were obtained from ATCC. Cells were grown in RPMI-1640 media (Invitrogen, Cat #22400-089) supplemented with 10% FBS (Invitrogen, Cat #10099141) and 1% penicillin/streptomycin (Invitrogen, Cat #15070063) and cultured at 37° C., 5% CO2 in a humidified chamber. All cell lines were routinely tested for mycoplasma.
The effect of the CDK7 inhibitor to inhibit the growth of target cancer cells was evaluated through the 72 hours time period of viability assay. Briefly, the candidate cell line ware plated in 96 well plate at the following density of cells respectively. 1×10^4 cells/well for MOLT-4, RPMI-8226, MV4-11 and MM.1S, 5×10^3 for H460, HCT116 and OVCAR-3 and IX 10^3 for A2780. After 24 hours, the cells were treated with various concentrations of the compound (ranging from 0.0015 uM to 10 uM). DMSO solvent without compound served as a control and final DMSO concentration less than 0.1%. After 72 hours of incubation at 37° C., 5% CO2 incubator, cells were analyzed for the viability using the CellTiter-Glo Luminescent Cell Viability Assay (Promega, Cat #G7570). All viability assays were performed in duplicate and Luminescence was read using an Envision (Perkin Elmer, USA). Data was analyzed using XLfit software.

CDK2/Cyclin A = target: T1, CDK2/Cyclin A (Homo sapiens, UniProt P24941); test: Enzymatic assay for CDK2 (FRET based LANCE Ultra kinase assay); type: biochemical
T1 construct: purchased Invitrogen PV6290
Procedure, shortened: (§1)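 LANCE Ultra TR-FRET: ULight-MBP peptide (68 nM) with ATP at Km, […], 60 min at 23° C. EDTA plus Eu-anti-phospho-MBP added, another 60 min, then 665/615 nm emission read. Compounds tested as 8-dose 4-fold DMSO dilutions.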

H460 = test: Cellular H460 viability assay (CellTiter-Glo, 72 hours); type: cell-based; settings: Homo sapiens, NCI-H460
Procedure, shortened: (§2)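 CellTiter-Glo luminescence read in duplicate after 72 h compound exposure (37 °C, 5% CO2); DMSO-only control, final DMSO under 0.1%.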

CDK1/Cyclin B = target: T2, CDK1/Cyclin B (Homo sapiens, UniProt P06493); test: Enzymatic assay for CDK1 (FRET based LANCE Ultra kinase assay); type: biochemical
T2 construct: purchased Invitrogen PR4768C
T2 sequence (P06493 whole entry): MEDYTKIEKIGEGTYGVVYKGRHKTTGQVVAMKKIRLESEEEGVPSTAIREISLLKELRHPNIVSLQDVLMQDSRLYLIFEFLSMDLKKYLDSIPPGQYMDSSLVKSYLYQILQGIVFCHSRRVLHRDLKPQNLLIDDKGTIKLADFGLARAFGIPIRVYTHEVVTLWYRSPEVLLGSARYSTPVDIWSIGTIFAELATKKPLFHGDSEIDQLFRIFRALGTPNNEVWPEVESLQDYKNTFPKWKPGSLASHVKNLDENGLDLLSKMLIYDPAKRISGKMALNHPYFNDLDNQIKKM
T2 sequence (P14635 whole entry partner): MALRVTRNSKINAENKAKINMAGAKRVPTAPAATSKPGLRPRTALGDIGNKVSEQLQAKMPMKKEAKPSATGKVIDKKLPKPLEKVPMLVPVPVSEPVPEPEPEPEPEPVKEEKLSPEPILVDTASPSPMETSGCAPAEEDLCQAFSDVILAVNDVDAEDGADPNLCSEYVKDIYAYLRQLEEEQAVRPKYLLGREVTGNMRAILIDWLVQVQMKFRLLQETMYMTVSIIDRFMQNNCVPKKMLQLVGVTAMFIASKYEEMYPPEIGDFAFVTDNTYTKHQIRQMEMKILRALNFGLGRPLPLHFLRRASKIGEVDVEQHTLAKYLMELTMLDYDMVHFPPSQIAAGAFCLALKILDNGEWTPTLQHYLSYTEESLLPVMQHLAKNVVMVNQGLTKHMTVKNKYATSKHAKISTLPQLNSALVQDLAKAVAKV
Procedure, shortened: as §1

CDK7/Cyclin H/MNAT1 = target: T3, CDK7/Cyclin H/MNAT1 (Homo sapiens, UniProt P50613); test: Enzymatic assay for CDK7 (FRET based LANCE Ultra kinase assay); type: biochemical
T3 construct: purchased Invitrogen PR6749B
T3 sequence (P50613 whole entry): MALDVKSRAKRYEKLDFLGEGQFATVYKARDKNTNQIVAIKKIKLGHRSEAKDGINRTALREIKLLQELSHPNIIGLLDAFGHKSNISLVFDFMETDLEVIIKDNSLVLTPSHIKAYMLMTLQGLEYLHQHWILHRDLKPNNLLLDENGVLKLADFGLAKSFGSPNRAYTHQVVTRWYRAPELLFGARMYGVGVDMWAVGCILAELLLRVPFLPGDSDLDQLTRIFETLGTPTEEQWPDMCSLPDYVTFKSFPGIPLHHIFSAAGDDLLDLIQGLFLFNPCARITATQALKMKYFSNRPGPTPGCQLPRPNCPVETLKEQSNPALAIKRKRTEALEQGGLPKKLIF
T3 sequence (P51946 whole entry partner): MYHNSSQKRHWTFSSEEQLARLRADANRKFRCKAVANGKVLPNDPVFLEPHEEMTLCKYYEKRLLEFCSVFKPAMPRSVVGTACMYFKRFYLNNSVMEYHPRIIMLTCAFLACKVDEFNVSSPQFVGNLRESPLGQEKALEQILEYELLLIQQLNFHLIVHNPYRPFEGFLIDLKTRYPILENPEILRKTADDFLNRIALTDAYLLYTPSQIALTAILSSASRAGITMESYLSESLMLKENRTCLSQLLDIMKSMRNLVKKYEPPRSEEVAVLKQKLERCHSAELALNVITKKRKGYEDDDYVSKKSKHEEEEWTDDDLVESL
T3 sequence (P51948 whole entry partner): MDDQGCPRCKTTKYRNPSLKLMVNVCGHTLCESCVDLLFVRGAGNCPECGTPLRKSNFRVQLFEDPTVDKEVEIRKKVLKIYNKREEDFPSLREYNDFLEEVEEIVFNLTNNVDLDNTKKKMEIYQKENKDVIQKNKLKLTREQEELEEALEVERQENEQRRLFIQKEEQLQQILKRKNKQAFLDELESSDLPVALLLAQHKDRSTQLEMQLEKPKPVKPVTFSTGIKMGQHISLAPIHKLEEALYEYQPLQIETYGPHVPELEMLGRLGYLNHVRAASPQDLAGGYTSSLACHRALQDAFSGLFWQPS
Procedure, shortened: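 Inhibition was measured at Km ATP by time-resolved FRET between a Eu anti-phospho antibody and a phosphorylated ULight peptide. The enzyme was the purified CDK7/cyclin complex, and data were curve-fitted.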

MV4-11 = test: Cellular MV4-11 viability assay (CellTiter-Glo, 72 hours); type: cell-based; settings: Homo sapiens
Procedure, shortened: as §2

CDK5/p25 = target: T4, CDK5/p25 (Homo sapiens, UniProt Q00535); test: Enzymatic assay for CDK5 (FRET based LANCE Ultra kinase assay); type: biochemical
T4 construct: purchased Invitrogen PR8543B
T4 sequence (Q00535 whole entry): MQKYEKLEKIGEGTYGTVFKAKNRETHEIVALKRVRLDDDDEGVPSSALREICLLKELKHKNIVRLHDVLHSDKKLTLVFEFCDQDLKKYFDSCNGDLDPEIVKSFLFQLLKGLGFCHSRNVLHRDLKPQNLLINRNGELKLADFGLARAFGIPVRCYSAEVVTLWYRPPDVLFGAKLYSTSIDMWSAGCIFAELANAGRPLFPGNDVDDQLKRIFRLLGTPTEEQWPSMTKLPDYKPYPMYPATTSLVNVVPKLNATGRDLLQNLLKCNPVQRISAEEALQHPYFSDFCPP
T4 sequence (Q15078 99-307 partner limits assumed): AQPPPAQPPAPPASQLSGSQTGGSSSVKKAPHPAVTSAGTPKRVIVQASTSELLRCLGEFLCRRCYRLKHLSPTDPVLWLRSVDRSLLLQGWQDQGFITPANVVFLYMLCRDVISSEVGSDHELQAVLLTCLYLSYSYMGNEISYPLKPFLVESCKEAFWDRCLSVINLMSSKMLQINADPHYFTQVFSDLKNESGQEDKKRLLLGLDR
Procedure, shortened: as §1

[1] = read-out: CDK2 enzymatic activity (IC50 activity range)
[2] = read-out: CDK1 enzymatic activity (IC50 activity range)
[3] = read-out: CDK7 enzymatic activity (IC50 activity range)
[4] = read-out: CDK5 enzymatic activity (IC50 activity range)
[5] = read-out: CDK2 enzymatic activity (IC50 range)
[6] = read-out: CDK1 enzymatic activity (IC50 range)
[7] = read-out: CDK7 enzymatic activity (IC50 range)
[8] = read-out: CDK5 enzymatic activity (IC50 range)

Structure (SMILES) | IC50 (A2780) | IC50 (CDK2/Cyclin A; [1]) | IC50 (H460) | IC50 (CDK1/Cyclin B; [2]) | CDK1/CDK7: Selectivity of CDK7 inhibition over CDK1 inhibition (CDK7/Cyclin H/MNAT1; CDK1/CDK7) | CDK2/CDK7: Selectivity of CDK7 inhibition over CDK2 inhibition (CDK7/Cyclin H/MNAT1; CDK2/CDK7) | CDK5/CDK7: Selectivity of CDK7 inhibition over CDK5 inhibition (CDK7/Cyclin H/MNAT1; CDK5/CDK7) | IC50 (CDK7/Cyclin H/MNAT1; [3]) | IC50 (MV4-11) | IC50 (CDK5/p25; [4]) | IC50 (CDK2/Cyclin A; [5]) | IC50 (CDK1/Cyclin B; [6]) | CDK1/CDK7: Selectivity of CDK7 inhibition over CDK1 inhibition (CDK7/Cyclin H/MNAT1; CDK7 over CDK1) | CDK2/CDK7: Selectivity of CDK7 inhibition over CDK2 inhibition (CDK7/Cyclin H/MNAT1; CDK7 over CDK2) | CDK5/CDK7: Selectivity of CDK7 inhibition over CDK5 inhibition (CDK7/Cyclin H/MNAT1; CDK7 over CDK5) | IC50 (CDK7/Cyclin H/MNAT1; [7]) | IC50 (CDK5/p25; [8])
CC(C)c1cnn2c(NCc3ccccc3-c3ccc4ccccc4n3)nc(N3CCCC[C@H]3CCO)nc12 [Compound 260] | 1000 to 10000 nM | > 1000 nM | 1000 to 10000 nM | > 1000 nM | B (B=less than 200 fold, but greater than 20 fold) | B (B=less than 200 fold, but greater than 20 fold) | B (B=less than 200 fold, but greater than 20 fold) | 100 to 1000 nM | 1000 to 10000 nM | > 1000 nM | – | – | – | – | – | – | –
CC(C)c1cnn2c(NCc3c(Cl)cccc3C#N)nc(N3CCC(N)CC3)nc12 [Compound 242] | ≤ 1000 nM | – | < 1000 nM | – | – | – | – | – | < 1000 nM | – | 100 to 1000 nM | > 1000 nM | A (A=greater than 200 fold) | B (B=less than 200 fold, but greater than 20 fold) | B (B=less than 200 fold, but greater than 20 fold) | < 100 nM | 100 to 1000 nM
CC(C)c1cnn2c(NCc3c(Cl)cccc3-c3cc(C(C)(C)O)nn3C)nc(N3CCC(N)CC3)nc12 [Compound 258] | ≤ 1000 nM | > 1000 nM | < 1000 nM | > 1000 nM | A (A=greater than 200 fold) | A (A=greater than 200 fold) | A (A=greater than 200 fold) | < 100 nM | < 1000 nM | > 1000 nM | – | – | – | – | – | – | –
CC(C)c1cnn2c(NCc3c(Cl)cccc3-c3cc(C(C)(C)O)n(C)n3)nc(N3CCC(N)CC3)nc12 [Compound 244] | ≤ 1000 nM | – | < 1000 nM | – | – | – | – | – | < 1000 nM | – | > 1000 nM | > 1000 nM | A (A=greater than 200 fold) | A (A=greater than 200 fold) | A (A=greater than 200 fold) | < 100 nM | > 1000 nM
CC(C)c1cnn2c(NCc3c(Cl)cccc3-c3ncc(C(C)(C)O)s3)nc(N3CCC(N)CC3)nc12 [Compound 249] | ≤ 1000 nM | > 1000 nM | < 1000 nM | > 1000 nM | A (A=greater than 200 fold) | A (A=greater than 200 fold) | A (A=greater than 200 fold) | < 100 nM | < 1000 nM | > 1000 nM | – | – | – | – | – | – | –
CC(C)c1cnn2c(NCc3ccccc3-c3ccc4cc(C(C)(C)O)ccc4n3)nc(N3CCC(O)(CN)CC3)nc12 [Compound 243] | ≤ 1000 nM | – | < 1000 nM | – | – | – | – | – | < 1000 nM | – | > 1000 nM | > 1000 nM | A (A=greater than 200 fold) | A (A=greater than 200 fold) | A (A=greater than 200 fold) | < 100 nM | > 1000 nM
CC(C)c1cnn2c(NCc3c(Cl)cccc3N3CC[C@@H](C(C)(C)O)C3)nc(N3CCC(N)CC3)nc12 [Compound 254] | ≤ 1000 nM | > 1000 nM | < 1000 nM | > 1000 nM | A (A=greater than 200 fold) | B (B=less than 200 fold, but greater than 20 fold) | B (B=less than 200 fold, but greater than 20 fold) | < 100 nM | < 1000 nM | 100 to 1000 nM | – | – | – | – | – | – | –
CC(C)c1cnn2c(NCc3ccccc3-c3ccc4ccccc4n3)nc(NC3CCC(O)CC3)nc12 (centres unmarked) [Compound 270] | 1000 to 10000 nM | > 1000 nM | 1000 to 10000 nM | > 1000 nM | A (A=greater than 200 fold) | A (A=greater than 200 fold) | A (A=greater than 200 fold) | < 100 nM | 1000 to 10000 nM | > 1000 nM | – | – | – | – | – | – | –
CC(C)c1cnn2c(NCc3cccc4ccc(C(C)(C)O)nc34)nc(N3CCC(N)CC3)nc12 [Compound 255] | ≤ 1000 nM | > 1000 nM | < 1000 nM | > 1000 nM | A (A=greater than 200 fold) | A (A=greater than 200 fold) | B (B=less than 200 fold, but greater than 20 fold) | < 100 nM | < 1000 nM | 100 to 1000 nM | – | – | – | – | – | – | –
CCN1CC[C@H](CNc2nc(NCc3ccccc3-c3ccc4ccccc4n3)n3ncc(C(C)C)c3n2)[C@@H](O)C1 [Compound 261] | ≤ 1000 nM | > 1000 nM | < 1000 nM | > 1000 nM | A (A=greater than 200 fold) | A (A=greater than 200 fold) | A (A=greater than 200 fold) | < 100 nM | 1000 to 10000 nM | > 1000 nM | – | – | – | – | – | – | –
CC(C)c1cnn2c(NCc3ccccc3-c3ccc4ccccc4n3)nc(N3CCOCC3)nc12 [Compound 268] | 1000 to 10000 nM | > 1000 nM | < 1000 nM | > 1000 nM | A (A=greater than 200 fold) | A (A=greater than 200 fold) | A (A=greater than 200 fold) | < 100 nM | > 10000 nM | > 1000 nM | – | – | – | – | – | – | –
